Data taken from PubChem BioAssay AID248 (DTP/NCI, 2004).
Inconclusive results and toxic doses are left out.

System: L1210 leukemia ip in BDF1 mice, survival T/C
Assay: NCI In Vivo Anticancer Drug Screen. Data for tumor model L1210 Leukemia (intraperitoneal) in B6D2F1 (BDF1) mice
Settings: endpoint: mean survival time, higher = longer survival
In short: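 Transplantable tumor model; survival measured in treated vs vehicle control mice. Value = treated/control.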

[1] = dose: 100.0 mg/kg/injection, schedule: Q01DX001 (ip), vehicle: saline
[2] = dose: 100.0 mg/kg/injection, schedule: Q04DX003 (ip), vehicle: saline with Tween-80
[3] = dose: 200.0 mg/kg/injection, schedule: Q04DX003 (ip), vehicle: saline with Tween-80
[4] = dose: 400.0 mg/kg/injection, schedule: Q04DX003 (ip), vehicle: saline with Tween-80
[5] = dose: 100.0 mg/kg/injection, schedule: Q01DX009 (ip), vehicle: saline with Tween-80
[6] = dose: 200.0 mg/kg/injection, schedule: Q01DX009 (ip), vehicle: saline with Tween-80
[7] = dose: 400.0 mg/kg/injection, schedule: Q01DX009 (ip), vehicle: saline with Tween-80

CC(=O)OCC1C(C)CCC1C(C)(C)OC(C)=O (stereo not given)
T/C (dose: 25.0 mg/kg/injection, schedule: Q04DX003 (ip), vehicle: saline): 95 % of control | T/C (dose: 50.0 mg/kg/injection, schedule: Q04DX003 (ip), vehicle: saline): 109 % of control | T/C [1]: 107 % of control | T/C (dose: 100.0 mg/kg/injection, schedule: Q04DX003 (ip), vehicle: saline): 98 % of control

S=C(c1cccs1)N1CCN(c2ccccc2)CC1
T/C [1]: 97 % of control | T/C (dose: 200.0 mg/kg/injection, schedule: Q01DX001 (ip), vehicle: saline): 95 % of control | T/C (dose: 400.0 mg/kg/injection, schedule: Q01DX001 (ip), vehicle: saline): 97 % of control

COC1OC(COS(=O)(=O)c2ccc(C)cc2)C(OS(=O)(=O)c2ccc(C)cc2)C(OS(=O)(=O)c2ccc(C)cc2)C1OS(=O)(=O)c1ccc(C)cc1 (stereo not given)
T/C [2]: 91 % of control | T/C [3]: 91 % of control | T/C [4]: 90 % of control

CC1=CCCC(C)C12CCC(C(C)(C)O)C2 (stereo not given)
T/C (dose: 50.0 mg/kg/injection, schedule: Q01DX009 (ip), vehicle: other): 104 % of control | T/C (dose: 100.0 mg/kg/injection, schedule: Q01DX009 (ip), vehicle: other): 98 % of control | T/C (dose: 100.0 mg/kg/injection, schedule: Q04DX003 (ip), vehicle: saline sonified): 103 % of control | T/C (dose: 200.0 mg/kg/injection, schedule: Q01DX009 (ip), vehicle: other): 100 % of control | T/C (dose: 200.0 mg/kg/injection, schedule: Q04DX003 (ip), vehicle: saline sonified): 107 % of control

O=C(NCCBr)Nc1ccccc1C(F)(F)F
T/C (dose: 100.0 mg/kg/injection, schedule: Q01DX009 (ip), vehicle: Klucel (hydroxypropylcellulose) (HPC)): 103 % of control | T/C (dose: 100.0 mg/kg/injection, schedule: Q04DX003 (ip), vehicle: Klucel (hydroxypropylcellulose) (HPC)): 112 % of control | T/C (dose: 200.0 mg/kg/injection, schedule: Q01DX009 (ip), vehicle: Klucel (hydroxypropylcellulose) (HPC)): 105 % of control | T/C (dose: 200.0 mg/kg/injection, schedule: Q04DX003 (ip), vehicle: Klucel (hydroxypropylcellulose) (HPC)): 103 % of control | T/C (dose: 400.0 mg/kg/injection, schedule: Q01DX009 (ip), vehicle: Klucel (hydroxypropylcellulose) (HPC)): 107 % of control | T/C (dose: 400.0 mg/kg/injection, schedule: Q04DX003 (ip), vehicle: Klucel (hydroxypropylcellulose) (HPC)): 93 % of control

CCOC(=O)c1ccc(N2C(=O)c3cccc4cccc(c34)C2=O)cc1
T/C [5]: 95 % of control | T/C [2]: 103 % of control | T/C [6]: 89 % of control | T/C [3]: 98 % of control | T/C [7]: 89 % of control | T/C [4]: 95 % of control

CC1SCC(NC(=O)N(CCCl)N=O)CS1 (stereo not given)
T/C (dose: 8.0 mg/kg/injection, schedule: Q01DX001 (ip), vehicle: saline with Tween-80): 150 % of control | T/C (dose: 12.0 mg/kg/injection, schedule: Q01DX001 (ip), vehicle: saline with Tween-80): 264 % of control | T/C (dose: 18.0 mg/kg/injection, schedule: Q01DX001 (ip), vehicle: saline with Tween-80): 389 % of control | T/C (dose: 26.0 mg/kg/injection, schedule: Q01DX001 (ip), vehicle: saline with Tween-80): 368 % of control | T/C (dose: 60.0 mg/kg/injection, schedule: Q01DX001 (ip), vehicle: saline with Tween-80): 104 % of control

C=C(C(=O)OC)C(C(=O)OC)=C(N1CCCCC1)N1CCCCC1
T/C (dose: 100.0 mg/kg/injection, schedule: Q04DX002 (ip), vehicle: saline with Tween-80): 95 % of control | T/C (dose: 200.0 mg/kg/injection, schedule: Q04DX002 (ip), vehicle: saline with Tween-80): 95 % of control

COC(=O)C/C=C/CC(=O)OC
T/C [5]: 95 % of control | T/C [6]: 90 % of control | T/C [7]: 88 % of control

Nc1ccc(OCCCCNC(=O)c2ccc(S(=O)(=O)F)cc2)c(Cl)c1
T/C [5]: 98 % of control | T/C [2]: 97 % of control | T/C [6]: 102 % of control | T/C [3]: 97 % of control | T/C [4]: 97 % of control

O=C(NCCNC(=O)c1cccc([N+](=O)[O-])c1O)c1cccc([N+](=O)[O-])c1O
T/C [2]: 96 % of control | T/C [3]: 95 % of control | T/C [4]: 90 % of control
